Laboratory results reported in patent US11992535B2, “Compounds and probes for imaging huntingtin protein” (CHDI Foundation, Inc., priority 2019, dated 2024).
Where two headings read alike, the source gives them in different places.

Target: aggregated MBP-HTT(1-89)Q46-His(6×) (Exonl-Q46) protein (Q46 protein aggregates) (Homo sapiens (Human), UniProt P42858, INS38QQQQQQQQQQQQQQQQQQQQQQQQQ)
Experiment: Q46 Radioligand Binding Assay
Settings: read-out: Q46_RBA EC50_
Procedure: Q46 Radioligand Binding Assay
For radioligand binding assays (RBA) MBP-HTT(1-89)Q46-His(6×) (“Exonl-Q46”) protein was generated based on a previous publication (Scherzinger et al. Cell, Vol. 90, 549-558, Aug. 8, 1997). For experiments 30 μM MBP-Exonl-Q46 was incubated with 150 μg/mL thrombin in assay buffer (150 mM NaCl, 50 mM Tris pH 8.0) and 2 mM CaCl2 for 16 hours at 37° C. Aggregated Exonl-Q46 was pelleted by centrifugation for 5 minutes at 13,000 rpm in a bench top centrifuge and re-dissolved in the same volume of assay buffer. Test compounds were prepared by titration in DMSO at 11 concentrations from 63 μM to 2 nM. For the RBA, Q46 protein aggregates and test compounds were pre-incubated in assay buffer for 20 minutes at room temperature, in 100 μL/well in a 96-well plate (pp, round bottom). Then, ligand was added in 50 μL/well and incubated for 60 minutes at 37° C. Final assay concentrations were 1 μM to 30 μM test compound, 1 μM Exonl-Q46 protein (equivalent monomer concentration) and 0.3 nM ligand [^3H3-methyl]-5-((5-methoxypyridin-2-yl)methoxy)-2-(pyrazin-2-yl)benzo[d]oxazole. Samples were transferred onto GF/B filter plates and washed 2× with 200 μL PBS using a Filtermate Harvester. After drying filter plates for 1 hour at 55° C., the back of the plates were sealed with foil and 30 μL/well scintillation fluid (Packard MicroScint 40) added, incubated for 15 minutes in the dark and counted in a MicroBeta reader. For analysis, replicate data from independent assay plates were normalized towards 0% and 100% inhibition using control wells of vehicle (0% inhibition) and 1 μM unlabelled [^3H3-methyl]-5-((5-methoxypyridin-2-yl)methoxy)-2-(pyrazin-2-yl)benzo[d]oxazole (100% inhibition). IC50 values were determined with a sigmoidal inhibition model with four variables (top, bottom, slope, IC50) in a global fit using the normalized replicate data.

[1] = displacement of 0.3 nM [3H3-methyl]-5-((5-methoxypyridin-2-yl)methoxy)-2-(pyrazin-2-yl)benzo[d]oxazole from 1 μM Exonl-Q46 aggregates, method calls the values IC50
[2] = same radioligand displacement on Exonl-Q46 aggregates

Chain of aggregated MBP-HTT(1-89)Q46-His(6×) (Exonl-Q46) protein (Q46 protein aggregates) (P42858 other isoform, or with tags, fused parts or gaps, stated change not applied): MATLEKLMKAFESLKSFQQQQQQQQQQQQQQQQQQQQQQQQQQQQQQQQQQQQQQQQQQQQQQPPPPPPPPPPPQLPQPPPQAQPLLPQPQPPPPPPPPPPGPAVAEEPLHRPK

SMILES | EC50 [1] [nM] | EC50 [2] [nM]
COc1ccc(COc2ccc3c(c2)CN(C(=O)c2ccc(OCF)nc2)CC3)nc1 [Example 36, (6-(Fluoromethoxy)pyridin-3-yl)(7-((5-methoxypyridin-2-yl)methoxy)-3,4-dihydroisoquinolin-2(1H)-yl)methanone] | 1.96 | < 100
COc1ccc(COc2ccc3c(c2)CN(C(=O)c2ccc(OC)nc2)CCO3)nc1 [Example 25, 7-[(5-Methoxypyridin-2-yl)methoxy]-4-(6-methoxypyridine-3-carbonyl)-2,3,4,5-tetrahydro-1,4-benzoxazepine] | 153 | 100 to 500
COc1ccc(COc2ccc3c(c2)CN(c2cccc(OC)n2)CC3)nc1 [Example 8.2] | 2.02 | < 100
COc1ccc(COc2ccc3c(c2)CN(c2ccc(OC)cn2)CC3)nc1 [Example 8, 2-(5-Methoxypyridin-2-yl)-7-[(5-methoxypyridin-2-yl)methoxy]-1,2,3,4-tetrahydroisoquinoline] | 1.79 | < 100
COc1ccc(C(=O)N(C)c2ccc3c(c2)CN(c2ccc(OC)nc2)CC3)nc1 [Example 17, 5-Methoxy-N-[2-(6-methoxypyridin-3-yl)-1,2,3,4-tetrahydroisoquinolin-7-yl]-N-methylpyridine-2-carboxamide] | 333 | 100 to 500
COc1ccc(COc2ccc3c(c2)CN(C(=O)c2ccc(OC)nn2)CC3)nc1 [Example 1.11] | 5.2 | < 100
COc1ccc(COc2cnc3c(c2)CN(c2ccc(OC)cn2)CC3)nc1 [Example 27, 6-(5-Methoxypyridin-2-yl)-3-[(5-methoxypyridin-2-yl)methoxy]-5,6,7,8-tetrahydro-1,6-naphthyridine] | 3.19 | < 100
COc1ccc(COc2ccc3c(c2)CN(C(=O)c2ccc(C(F)(F)F)nc2)CC3)nc1 [Example 1.17] | 2.54 | < 100
COc1ccc(COc2ccc3c(c2)CN(C(=O)OCC(C)C)CC3)nc1 [Example 33, 2-Methylpropyl 7-[(5-methoxypyridin-2-yl)methoxy]-1,2,3,4-tetrahydroisoquinoline-2-carboxylate] | 36.5 | < 100
COc1ccc(COc2ccc3c(c2)CNCC3)nc1 [Example 1.30, 7-[(5-Methoxypyridin-2-yl)methoxy]-1,2,3,4-tetrahydroisoquinolin-2-ium chloride] | 1000 | > 500
COc1ccc(COc2ccc3c(c2)CN(c2cc(OC)ccn2)CC3)nc1 [Example 8.1] | 1.7 | < 100
COc1ccc(Cn2c3c(ccc2=O)CCN(C(=O)c2ccc(OC)nc2)C3)nc1 [Example 26.1] | – | > 500
CC(=O)N1CCc2ccc(OCc3ccc(O)cn3)cc2C1 [Example 32, 1-{7-[(5-Hydroxypyridin-2-yl)methoxy]-1,2,3,4-tetrahydroisoquinolin-2-yl}ethan-1-one] | 191 | 100 to 500
COc1ccc(C(=O)N2CCc3ccc(OCc4ccc(OC)cn4)cc3C2)cc1 [Example 1.26] | 1.78 | < 100
COc1ccc(C(=O)N2CCc3ccc(OCc4ccc(O)cn4)cc3C2)cn1 [Example 35.1, (7-((5-Hydroxypyridin-2-yl)methoxy)-3,4-dihydroisoquinolin-2(1H)-yl)(6-methoxypyridin-3-yl)methanone] | 8.44 | < 100
COc1ccc(COc2ccc3c(c2)CN(C(=O)c2ccc(OC)cn2)CC3)nc1 [Example 1.10] | 5 | < 100
COc1ccc(COc2ccc3c(c2)CN(c2cncc(OC)c2)CC3)nc1 [Example 6.1] | 2.65 | < 100
COc1ccc(COc2cnc3c(c2)CN(C(=O)c2ccnc(OC)c2)CC3)nc1 [Example 1.21] | 16.3 | < 100
COc1ccc(COC(=O)N2CCc3ccccc3C2)cn1 [Example 5, (6-Methoxypyridin-3-yl)methyl 1,2,3,4-tetrahydroisoquinoline-2-carboxylate] | 1000 | > 500
